From patent US20190350940A1, “PLATINUM COMPOUNDS, COMPOSITIONS, AND USES THEREOF” (priority 2015, published 2019)
Read-outs that look alike come from different tables or passages of the source.

Columns and labels:
[1] = system: MIA Paca-2 human pancreatic adenocarcinoma; assay: MIA Paca-2 pancreatic xenograft model; assay type: in vivo, mouse
[2] = system: A2780 human ovarian cancer; assay: A2780 ovarian xenograft model; assay type: in vivo, mouse
Description: The effect of Compound 8 on tumor growth inhibition (TGI) was evaluated in the A2780 human ovarian cancer nude mouse (female Crl:NU(NCr)-Foxn1^nu) xenograft model.

[3] = system: BxPC-3 human pancreatic adenocarcinoma; assay: BxPC-3 pancreatic xenograft model; assay type: in vivo, mouse; conditions: cisplatin 4 mg/kg
Description: The effect of Compound 8 on TGI was evaluated in the BxPC-3 human pancreatic adenocarcinoma nude mouse (female Crl:NU(NCr)-Foxn1^nu) xenograft model.

Calu-6 human NSCLC = assay: Calu-6 lung xenograft model; assay type: in vivo, mouse
Description: The effect of Compound 8 was evaluated in the Calu-6 human NSCLC nude mouse (female Crl:NU(NCr)-Foxn1^nu) xenograft model.

NCI-H520 human NSCLC = assay: NCI-H520 lung xenograft model; assay type: in vivo, mouse
Description: The effect of Compound 8 also was evaluated in the NCI-H520 human NSCLC nude mouse (female CrTac:NCr-Foxn1^nu) xenograft model. […] All treatments were statistically significant compared to vehicle (p<0.0001).

rat = assay: Single IV administration in the rat, kidney findings; assay type: in vivo; conditions: single dose of cisplatin 7 mg/kg
patients = conditions: cited from earlier work
rats = conditions: 50 rats treated for 3 weeks, 3×1 mg/kg body weight/week; cited from earlier work

In the case of `O=C1[O][Pt]2([NH][C@@H]3CCCC[C@H]3[NH]2)[O]C1=O` [Oxaliplatin], the “MTV (mean tumor volume)” value ([1]; Oxaliplatin 7 mg/kg (17.9 uM/kg) IV q3, 7 doses, Day 18) is reported as 1251 mm^3, the “TGI (tumor growth inhibition) versus vehicle” value ([1]; Oxaliplatin 7 mg/kg IV q3, 7 doses, Day 18) is reported as 61% and the Treatment-related effects ([1]; oxaliplatin 7 mg/kg, all animals, Day 18) is reported as “pale and dehydrated and having petechiae”. The “Mean maximal BW loss” value ([1]; oxaliplatin 7 mg/kg, printed 'Day 5.3') was 8.1%.

For `N.N.[Cl][Pt][Cl]` [Cisplatin], the “MTV (mean tumor volume)” value ([2]; Cisplatin 4 mg/kg (13.3 uM/kg) IV every 3 days, 6 doses) was 1052 mm^3, the “TGI (tumor growth inhibition) versus vehicle” value ([2]; Cisplatin 4 mg/kg IV every 3 days, 6 doses) was 55% and the “Mean maximal BW loss” value ([2]; cisplatin 4 mg/kg, Day 5) was 2.3%. For the same compound, the Treatment-related side effects [3] was “No treatment-related side effects”, the “MTV (mean tumor volume)” value (Calu-6 human NSCLC; Cisplatin 3 mg/kg (10 uM/kg) IV twice weekly for 2 weeks, Day 33) was 462 mm^3 and the “TGI (tumor growth inhibition) versus vehicle” value (Calu-6 human NSCLC; Cisplatin 3 mg/kg IV twice weekly for 2 weeks, Day 33) was 74%. The “Median TTE (time to endpoint)” value (Calu-6 human NSCLC; Cisplatin 3 mg/kg IV twice weekly for 2 weeks, Day 54) was 52.5 days, the BW loss (Calu-6 human NSCLC; cisplatin 3 mg/kg) was “no BW loss” and the T-C (Calu-6 human NSCLC; cisplatin 3 mg/kg) was 16.7 days. The Treatment-related side effects (Calu-6 human NSCLC; cisplatin 3 mg/kg, one animal) was “severe petechiae on Day 4”, the “MTV (mean tumor volume)” value (NCI-H520 human NSCLC; Cisplatin 3 mg/kg (10 uM/kg) IV twice weekly, 5 doses, Day 31) was 823 mm^3 and the “Mean maximal BW loss” value (NCI-H520 human NSCLC; cisplatin 3 mg/kg, on Day 4) was 0.43%. For the same compound, the Kidney findings (rat) was “high incidence of moderate acute tubular necrosis of the kidney”, the “Response rate in most advanced cancers” value (patients; first-line setting) was roughly 50% and the “Hypersensitivity reactions, patients treated” value (patients; human, in vivo) was “up to 20%”. For the same compound, the “Response rate in most advanced cancers” value (patients; second- or third-line setting) was 15% and the “Deaths secondary to malignancy” value (rats) was 13.
